# From publication PMC11981937 (Nature, 2025)
# Like-named read-outs stand apart in the source and are kept apart here.
# Assays:
# Type in all cases: cell-based
# SARS-CoV-2 (B1 variant) = assay: microbe, parasite or virus in culture; conditions: Severe acute respiratory syndrome coronavirus 2, 48 h
# SARS-CoV-2 Delta variant = assay: microbe, parasite or virus in culture; conditions: Severe acute respiratory syndrome coronavirus 2; SARS-CoV-2 Delta B.1.617.1
# [1] = system: SARS-CoV-2 Omicron BA.1 variant; assay: microbe, parasite or virus in culture; conditions: Severe acute respiratory syndrome coronavirus 2, SARS-CoV-2 Omicron B.1.1.529
# SARS-CoV-2_M:A85S = system: SARS-CoV-2_M:A85S
# SARS-CoV-2_M:W55F = system: SARS-CoV-2_M:W55F
# SARS-CoV-2 M:A98D = system: SARS-CoV-2 M:A98D
# SARS-CoV-2_M:L90W = system: SARS-CoV-2_M:L90W
# SARS-CoV-2_M:L29F = system: SARS-CoV-2_M:L29F
# SARS-CoV-2_M:Q185K = system: SARS-CoV-2_M:Q185K
# SARS-CoV-2_M:M91K = system: SARS-CoV-2_M:M91K
# [2] = read-out: EC50, production of viral RNA
# [3] = read-out: EC90, production of viral RNA
Compound,"EC50 (SARS-CoV-2 (B1 variant); read-out: EC50, RNA copy numbers (printed in Fig. 1c)) [nM]",EC50 (SARS-CoV-2 (B1 variant); [2]) [nM],"EC90 (SARS-CoV-2 (B1 variant); read-out: EC90, RNA copy numbers (printed in Fig. 1c)) [nM]",EC90 (SARS-CoV-2 (B1 variant); [3]) [nM],EC50 (SARS-CoV-2 Delta variant) [nM],EC50 [1] [nM],Potency shift (EC50 fold change ± SD vs recombinant WT virus) (SARS-CoV-2_M:A85S) [fold change],Potency shift (EC50 fold change ± SD vs recombinant WT virus) (SARS-CoV-2_M:W55F) [fold change],Potency shift (EC50 fold change ± SD vs recombinant WT virus) (SARS-CoV-2 M:A98D) [fold change],Potency shift (EC50 fold change ± SD vs recombinant WT virus) (SARS-CoV-2_M:L90W) [fold change],Potency shift (EC50 fold change ± SD vs recombinant WT virus) (SARS-CoV-2_M:L29F) [fold change],Potency shift (EC50 fold change ± SD vs recombinant WT virus) (SARS-CoV-2_M:Q185K) [fold change],Potency shift (EC50 fold change ± SD vs recombinant WT virus) (SARS-CoV-2_M:M91K) [fold change]
"CC(C)(C)[C@H](NC(=O)C(F)(F)F)C(=O)N1C[C@H]2[C@@H]([C@H]1C(=O)N[C@H](C#N)C[C@@H]1CCNC1=O)C2(C)C [nirmatrelvir, reference compound]",109,109 ± 55.6,268,268 ± 112,,,,,,,,,
"C[C@H]1Cn2ncc(C(=O)Nc3cccc(C#N)c3)c2C(=O)N1c1ccc(C(F)(F)c2ccccc2)cc1 [JNJ-9676, (S)-N-(3-cyanophenyl)-5-(4-(difluoro(phenyl)methyl)phenyl)-6-methyl-4-oxo-4,5,6,7-tetrahydropyrazolo[1,5-a]pyrazine-3-carboxamide]",,94 ± 3.4,,132 ± 36.7,14,26,0.64 ± 0.21,0.62 ± 0.26,2.02 ± 0.58,2.47 ± 1.48,5.57 ± 0.42,5.55 ± 1.92,10.03 ± 3.28
